Data set [1] has as its system Erythrocyte. Put plainly: Induction of membrane permeabilization assessed as hemolysis in RBC (unknown origin) at 100 microM by spectrophotometry based hemoglobin release assay. It counts as functional.
The nature of data set [2]: Critical micelle concentration of the compound by KRUSS tensiometry. It counts as physicochemical.
The test system of data set [3] is HCT-116. Put plainly: Cytotoxicity against human p53-positive HCT116 cells assessed as reduction in cell viability after 24 hrs by MTT assay. The following applies: HCT-116, 24 h. Format: functional, cell-based. In general terms: Formazan colour is commonly taken as a measure of viable cells.
Data set [4] concerns Erythrocyte. Kind of data set: Induction of membrane permeabilization assessed as hemolysis in RBC (unknown origin) by spectrophotometry based hemoglobin release assay. Format: functional, cell-based.
The next data set deals with RAW264.7. Put plainly: Cytotoxicity against mouse RAW264.7 cells assessed as reduction in cell viability after 24 hrs by MTT assay. The note with it: RAW264.7, 24 h. Format: functional, cell-based.
The next data set concerns Escherichia coli. Put plainly: Antibacterial activity against Escherichia coli M17 VKPM-B8208 by agar plate assay. It counts as functional, organism-based.
Data set [5] deals with Hemoglobin HbA (Homo sapiens) (UniProt P69905+P68871). Put plainly: Binding affinity to Hemoglobin (unknown origin) at 10 mM by circular dichroism spectroscopy. Background: Circular dichroism is the unequal absorption of left and right circularly polarised light.
Chain of Hemoglobin HbA (Homo sapiens) (P68871 2-147 partner limits assumed): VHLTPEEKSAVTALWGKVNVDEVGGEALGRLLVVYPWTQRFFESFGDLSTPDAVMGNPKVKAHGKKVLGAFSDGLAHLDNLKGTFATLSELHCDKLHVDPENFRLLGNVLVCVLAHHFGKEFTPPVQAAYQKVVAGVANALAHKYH
Chain of Hemoglobin HbA (Homo sapiens) (P69905 2-142 limits assumed): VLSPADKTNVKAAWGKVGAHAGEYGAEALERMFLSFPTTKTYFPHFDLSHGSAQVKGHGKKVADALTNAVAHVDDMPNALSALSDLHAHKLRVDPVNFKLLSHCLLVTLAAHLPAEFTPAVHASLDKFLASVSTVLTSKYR
Data set [6] can be described thus: Cytotoxicity against human ARPE19 cells assessed as reduction in cell viability after 24 hrs by MTT assay. It counts as cell-based. The note with it: ARPE-19, 24 h.
The test system of data set [7] is HCT-116. Kind of data set: Drug uptake in human p53-positive HCT116 cells after 48 hrs by energy-dispersive X-ray spectroscopy. Format: ADME, cell-based. The note with it: hct-116, 48 h.
The next data set relates to Steinernema feltiae. Put plainly: Nematicidal activity against Steinernema feltiae assessed as reduction in viability after 24 hrs. It counts as functional. The following applies: read-out: LD50 (the source's name).
For data set [8], the system named is HCT-116. Put plainly: Induction of superoxide anion radicals generation in human p53-positive HCT116 cells at 50 microM within 40 mins by DHE staining based fluorescence assay. Format: functional, cell-based.
In data set [9] the test system is HCT-116. Put plainly: Induction of superoxide anion radicals generation in human p53-positive HCT116 cells by DHE staining based fluorescence assay. It counts as functional, cell-based.
Data set [10] deals with HCT-116. Put plainly: Reduction in mitochondrial membrane potential in human p53-positive HCT116 cells by JC-1 dye based fluorescence assay. It counts as functional, cell-based.

Structures are written as SMILES. Calls of active or inactive are those of the source. The rule behind the calls is not given here.

The term IC50 denotes the concentration that inhibits the measured activity by half.

Turning to `O=S(=O)([O-])OCCCCCCCCCCCC[Se]c1ccccc1.[Na+]`, the Activity is 66.8% in the data set with Erythrocyte [1] and “Dose-dependent effect” in the data set on Erythrocyte [4]. This compound also yielded a CMC in data set [2] of 0.7 mM. Also, the IC50 in the data set on HCT-116 [3] and in the data set with RAW264.7 was more than 100 µM throughout.

Turning to `O=S(=O)([O-])OCCCCCCCC[Te]c1ccccc1.[Na+]`, the concentration for half-maximal inhibition (IC50) with Escherichia coli was found to be 550 µM; in data set [6], 50 µM; in the data set with HCT-116 [3] it was 5.99 µM; in the data set with RAW264.7, 3.95 µM. The Activity is 3.09% in the data set with Erythrocyte [1] and “Dose-dependent effect” with Erythrocyte [4]. In addition, the result (in data set [5]; in the data set with HCT-116 [8]) was Active. The CMC in data set [2] is recorded as 5 mM. Further, the Drug uptake entry with HCT-116 [7] is reported as “Active”. Besides, the LC50 with Steinernema feltiae was found to be 78 µM.

As to `O=S(=O)([O-])OCCCCCCCCCC[Se]c1ccccc1.[Na+]`, the results for the Activity in the data set on Erythrocyte [1] and in the data set with Erythrocyte [4] were 7.94% and “Dose-dependent effect”, respectively. Also, the CMC in [2] stood at 1.2 mM. For the same compound, the half-inhibitory concentration (IC50) in the data set on HCT-116 [3] and in the data set with RAW264.7 was more than 100 µM in each case.

Regarding `O=S(=O)([O-])OCCCCCCCCCC[Te]c1ccccc1.[Na+]`, the results for the Activity in the data set on Erythrocyte [1] and with Erythrocyte [4] were 45.35% and “Dose-dependent effect”, respectively. Further, the CMC in data set [2] amounted to 0.9 mM. The IC50 in [6] was 50 µM; in the data set on HCT-116 [3], 7.47 µM; with RAW264.7 it was 5.32 µM.

With `O=S(=O)([O-])OCCCCCCCCCCC[Se]c1ccccc1.[Na+]`, the Activity in the data set with Erythrocyte [1] is 63.41%; in the data set on Erythrocyte [4], “Dose-dependent effect”. The same compound returned a CMC in data set [2] of 1.1 mM. Moreover, the 50% inhibitory concentration (IC50) with HCT-116 [3] and in the data set on RAW264.7 was more than 100 µM throughout.

For the compound `CCCCCCCCCCCCOS(=O)(=O)[O-].[Na+]` [SODIUM LAURYL SULFATE], the Activity in the data set on Erythrocyte [1] was 9.51%; with Erythrocyte [4] it was “Dose-dependent effect”. Moreover, the CMC in [2] is 0.9 mM. Also, the IC50 in the data set on HCT-116 [3] and in the data set on RAW264.7 was more than 100 µM throughout. The LC50 with Steinernema feltiae is more than 400 µM.

For `O=S(=O)([O-])OCCCCCCCC[Se]c1ccccc1.[Na+]`, the outcome with HCT-116 [9] and in the data set with HCT-116 [10] was inactive. Moreover, the Activity in the data set with Erythrocyte [1] is 1.24%; in the data set on Erythrocyte [4] it was “Dose-dependent effect”. The result in data set [5] was Active. The same compound had a CMC in data set [2] of 2.6 mM. Moreover, the IC50 with HCT-116 [3] and with RAW264.7 was more than 100 µM each time. Further, the LC50 in the data set on Steinernema feltiae is 30 µM.

On to `O=S(=O)([O-])OCCCCCCCCCCCC[Te]c1ccccc1.[Na+]`, for which the Activity was 67.61% with Erythrocyte [1] and “Dose-dependent effect” with Erythrocyte [4]. In addition, the CMC in data set [2] is 0.3 mM. In addition, the figures for the IC50 (in data set [6]; in the data set with HCT-116 [3]; in the data set on RAW264.7) were 50 µM, 19.8 µM and 4.96 µM, respectively.

As for `O=S(=O)([O-])OCCCCCCCCC[Se]c1ccccc1.[Na+]`, the Activity is 2.73% in the data set with Erythrocyte [1] and “Dose-dependent effect” in the data set on Erythrocyte [4]. In addition, in data set [2], the CMC came to 2.5 mM. Moreover, the IC50 in the data set with HCT-116 [3] and with RAW264.7 was more than 100 µM in each case.

As to `O=S(=O)([O-])OCCCCCCCCCCC[Te]c1ccccc1.[Na+]`, the Activity with Erythrocyte [1] is 53.35%; in the data set with Erythrocyte [4] it was “Dose-dependent effect”. In data set [2], this compound had a CMC of 0.5 mM. Moreover, the results for the half-maximal inhibitory concentration (IC50) (in [6]; in the data set on HCT-116 [3]; with RAW264.7) were 50 µM, 9.73 µM and 7.84 µM, respectively.

Regarding `O=S(=O)([O-])OCCCCCCCCC[Te]c1ccccc1.[Na+]`, the values for the Activity in the data set with Erythrocyte [1] and in the data set on Erythrocyte [4] were 20.44% and “Dose-dependent effect”, respectively. The compound further had a CMC in data set [2] of 4.8 mM. For the same compound, the results for the IC50 (in [6]; in the data set with HCT-116 [3]; in the data set on RAW264.7) were 50 µM, 4.99 µM and 4.67 µM, respectively.

(Values after ChEMBL document CHEMBL3132776, “Synthesis of amphiphilic, chalcogen-based redox modulators with in vitro cytotoxic activity against cancer cells, macrophages and microbes” (Medchemcomm, 2014).)
